In patent US6211209A, “Method of inhibiting connective tissue degradation” (Warner-Lambert Company, priority 1998, dated 2001):

What was measured:
[1] = test system: bovine nasal cartilage; test: Bovine nasal cartilage assay: inhibition of IL-1β-induced proteoglycan loss (chondroitin sulfate by 1,9 DMB); assay type: cell-based; settings: Bos taurus; concentration preventing 50% of proteoglycan loss; IL-1β-stimulated cartilage plugs
Procedure: The BNC (bovine nasal cartilage) assay provides a model for evaluating chrondroprotective compounds that block cartilage degradation through inhibition of enzyme activity or by altering the gene expression of the matrix metalloproteinases such as stromelysin.
The assay is accomplished in two phases. The cartilage plugs are first incubated with IL-1β in the presence of the compounds of the present method. The amount of proteoglycan released is then quantified by measuring chondroitin sulfate present in the media using the 1,9-Dimethylmethylene Blue Assay (1,9 DMB).
Bovine nasal septum is dissected free of surrounding tissue and wiped with 70% alcohol. A sterile cork borer is used to remove 5-mm cartilage disks of 2- to 3-mm thickness. Explants are equilibrated for 96 hours in F-12 supplemented with 10% fetal calf serum (FCS) and antibiotics at 37° C. in a humidified atmosphere of 95% air and 5% CO2. Explants are then rinsed with 1 mL F-12 Nutrient Mixture (without phenol red) in order to remove traces of FCS. Each treatment group is done in triplicate allowing: controls (500 μL F-12 medium +110 μL PBS with 0.1% BSA +7 μL DMSO); IL-1β (500 μL F-12 medium without phenol red +100 μL IL-1β (500 U) +7 μL DMSO +10 μL PBS with 0.1% BSA); and dose responses (10, 1, and 0.1 μM) (F-12 medium without phenol red +100 μL IL-1β (500 U) +7 μL compound dissolved in DMSO +10 μL PBS with 0.1% BSA), to be tested per each 24-well plate. The cartilage plugs are incubated in the presence of conditioned media (IL-1β+compound) for 48 hours. Fresh unconditioned media (no IL-1β or compound) is added and incubated for an additional 24 hours. Both the conditioned and unconditioned media are collected and saved for analysis using the 1,9 DMB assay.
The ability of a compound to inhibit proteoglycan released from the cartilage plugs is quantified by measuring chondroitin sulfate. This is done using the calorimetric 1,9 DMB assay. Depending on the amount of chondroitin sulfate present in the media a color change will occur turning the normally deep blue dye, vivid pink. This color change is measured using a Titertek Multiscan MCC 340 plate reader at 540 nm. A Cetus Pro/Pette is used to speed dilution and pipetting steps. The Cetus uses Sarstedt vials, designed for radioimmune assays, which have been inserted into Sarstedt 96-vial aluminum racks. The first row of 12 slots is left empty in order to accommodate the chondroitin sulfate standards (0.01-0.32 μg/mL shark chondroitin sulfate in 0.1 M phosphate buffer, pH 7.0, containing 0.01 M L-cysteine HCl and 0.05 M EDTA). It is necessary to dilute (1:5, 1:10) the medium before a […] is performed by adding 10 μL of collected media to 290 μL DMF (16 mg dye/1 L of 0.1 M formate buffer, pH 3.5, containing 5 mL ethanol) and reading at […]. Dilutions are performed on both the 48-hour and 72-hour media samples collected and saved earlier. Once the experiment has been completed, in order to determine the total amount of proteoglycan remaining in the plugs, they are subjected to papain digestion. Cartilage explants are digested in 20-mL glass scintillation vials by adding 50 μL papain in 1.0 mL cysteine buffer (0.01 M phosphate buffer, pH 7.0 containing 0.01 M L-cysteine HCl and 0.05 M EDTA). Digested material is diluted (1:60) and chondroitin sulfate values determined using the 1,9 DMB assay.
Determination of chondroitin sulfate in each sample is accomplished by subtracting the constant value determined from the linear regression performed on the standard curve, from the O.D. value for a particular well, and then dividing by the X coefficient calculated from the linear regression done on the standard curve. Each experimental well is split into two samples for determining chondroitin sulfate values, then the two are averaged. […]

[2] = test system: 92 kDa gelatinase; test: Gelatin zymography of bovine nasal cartilage conditioned media: expression of 92 kDa gelatinase; assay type: cell-based
Procedure: To evaluate the effects of the compounds of the present invention on the expression of 72 kDa and 92 kDa gelatinases, samples obtained from the bovine nasal cartilage study (described above) were subjected to gelatin zymography.
Separating gels (8%) were made by combining 400 μL gelatin (25 mg/mL) with: 2.5 mL Tris (1.5 M); 100 μL SDS (10%); 2.6 mL acrylamide (30%); 10 μL TEMED; 4.6 mL dH2 O; 100 μL ammonium persulfate (10%). Stacking gels (4.5%) were formed by combining: 2.5 mL Tris (0.5 M); 100 μL SDS (10%); 1.5 mL acrylamide (30%); 10 μL TEMED; 5.8 mL dH2 O; 100 μL ammonium persulfate (10%).
Bovine nasal cartilage conditioned media was diluted (1:15) using sample buffer 1X (2% SDS, 15% glycerol, 0.01% bromophenol blue, 0.25M Trizma Base, pH 6.8). Thirty microliters of each of the diluted samples and molecular weight standards were subjected to electrophoresis at 4° C. under constant current conditions (20 mA of current/gel) using Tris/Glycine running buffer (0.5 M Trizma Base, pH 8.8 using glycine, 1% SDS) that was diluted 1:20 before use.
After completion of the electrophoretic procedure, the gel was first washed twice for 15 minutes in 2.5% Triton X-100. The gel was then rinsed with the gel incubation buffer (0.05 M Tris, pH 8.2, 0.005 M CaCl2, 0.5 μM ZnCl2) and incubated overnight in this buffer at 37° C. After the incubation period, the gel was stained for 30 minutes in 0.125% Coomassie and destained using 10% methanol/5% acetic acid destaining solution.

S=c1[nH]nc(-c2ccccc2Nc2ccccc2)o1 [Compound 1, 5-(2-Phenylamino-phenyl)-3H-[1,3,4]oxadiazole-2-thione]
IC50 [1]: 830 nM | inhibiting expression of IL-1β-induced 92 kDa gelatinase ([2]; various concentrations, IL-1β-induced, FIG. 1): effective in inhibiting expression of IL-1β-induced 92 kDa gelatinase in a dose-dependent manner | specificity of effects (92 kDa versus 72 kDa gelatinase) ([2]; versus 72 kDa gelatinase): specific to 92 kDa
